We go through ten compounds from patent publication US10294202B2, “Pyrrolidinones as herbicides” (FMC Corporation, priority 2013, dated 2019).

One assay relates to morningglory. Description: Test A pre-/postemergence herbicide test. The format is in vivo, Ipomoea spp. Put shortly: (§1)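 Seeds in loam–sand blend received preemergence directed soil spray; separately, plants 2–10 cm at one- to two-leaf stage received postemergence spray, both with test chemicals in non-phytotoxic solvent with surfactant. After ~10 days in greenhouse, injury rated visually against untreated controls, 0 (no effect) to 100 (complete control).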

Another assay deals with wheat. Description: Test A pre-/postemergence herbicide test. The class given is in vivo, Triticum aestivum. In outline:
as §1

Assay [1] concerns crabgrass, large. The assay is described as follows: Test A pre-/postemergence herbicide test. The format is in vivo, Digitaria sanguinalis. Put shortly:
as §1

For assay [2], the system named is crabgrass, large. The assay is described as follows: Test C pre-/postemergence herbicide test. The class given is in vivo, Digitaria sanguinalis. The text has this: Seeds of plant species selected from blackgrass (Alopecurus myosuroides), ryegrass, Italian (Italian ryegrass, Lolium multiflorum), wheat (winter wheat, Triticum aestivum), galium (catchweed bedstraw, Galium aparine), corn (Zea mays), crabgrass, large (large crabgrass, Digitaria sanguinalis), foxtail, giant (giant foxtail, Setaria faberii), johnsongrass (Sorghum halepense), lambsquarters (Chenopodium album), morningglory (Ipomoea coccinea), nutsedge, yellow (yellow nutsedge, Cyperus esculentus), pigweed (Amaranthus retroflexus), ragweed (common ragweed, Ambrosia elatior), soybean (Glycine max), barnyardgrass (Echinochloa crus-galli), oilseed rape (Brassica napus), waterhemp (common waterhemp, Amaranthus rudis), kochia (Kochia scoparia), oat, wild (wild oat, Avena fatua), surinam grass (Brachiaria decumbens), foxtail, green (green foxtail, Setaria viridis), goosegrass (Eleusine indica), bromegrass, downy (downy bromegrass, Bromus tectorum), nightshade (eastern black nightshade, Solanum ptycanthum), cocklebur (common cocklebur, Xanthium strumarium), cupgrass, woolly (woolly cupgrass, Eriochloa villosa), bermudagrass (Cynodon dactylon), sunflower, (common oilseed sunflower, Helianthus annuus), Russian thistle (Salsola kali) and velvetleaf (Abutilon theophrasti) were planted into a blend of loam soil and sand and treated preemergence with test chemicals formulated in a non-phytotoxic solvent mixture which included a surfactant. At the same time, plants selected from these crop and weed species and also barley (winter barley, Hordeum vulgare), […]), chickweed (common chickweed, Stellaria media), deadnettle (henbit deadnettle, Lamium amplexicaule), and canarygrass (littleseed canarygrass, Phalaris minor) were planted in pots containing Redi-Earth® planting medium (Scotts Company, 14111 Scottslawn Road, Marysville, Ohio 43041) comprising spaghnum peat moss, vermiculite, wetting agent and starter nutrients and treated with postemergence applications of test chemicals formulated in the same manner. Plants ranged in height from 2 to 18 cm (1- to 4-leaf stage) for postemergence treatments. Treated plants and controls were maintained in a greenhouse for 13 to 15 days, after which time all species were compared to controls and visually evaluated. Plant response ratings, summarized in Table C, are based on a scale of 0 to 100 where 0 is no effect and 100 is complete control. A dash (-) response means no test result.

The mark [3] stands for this setting: Postemergence, 125 g ai/ha, 0 to 100 scale, 0 no effect, 100 complete control.
Where [4] appears, read: Postemergence, 500 g ai/ha, 0 to 100 scale (0 no effect, 100 complete control).
Where [5] appears, read: Preemergence, 125 g ai/ha, visual rating on 0 to 100 scale (0 no effect, 100 complete control).
Where [6] appears, read: preemergence, 500 g ai/ha, 0 to 100 scale.
Where [7] appears, read: Preemergence, 31 g ai/ha, scale 0 to 100, 0 is no effect and 100 is complete control.
Where [8] appears, read: Preemergence, 125 g ai/ha, scale 0 to 100 (0 no effect, 100 complete control).
Where [9] appears, read: Postemergence, 125 g ai/ha, 0 to 100 scale, 0 is no effect, 100 is complete control.
The mark [10] stands for this setting: Preemergence, 125 g ai/ha, 0 to 100 scale where 0 is no effect and 100 is complete control.
Setting [11] is: preemergence, 500 g ai/ha, 0 to 100 scale, 0 is no effect and 100 is complete control.
The mark [12] stands for this setting: Preemergence, 62 g ai/ha, scale 0 to 100 (0 no effect, 100 complete control).
[13] abbreviates: Postemergence, 125 g ai/ha, visual rating on 0 to 100 scale (0 no effect, 100 complete control), approx. 10 days.
Where [14] appears, read: Postemergence, 31 g ai/ha, scale 0 to 100 (0 no effect, 100 complete control).
Setting [15] is: Postemergence, 62 g ai/ha, scale 0 (no effect) to 100 (complete control).
The mark [16] stands for this setting: Postemergence, 125 g ai/ha, scale 0 to 100 (0 no effect, 100 complete control).
[17] abbreviates: Preemergence, 125 g ai/ha, scale 0 to 100.
[18] abbreviates: Postemergence, 250 g ai/ha, scale 0 to 100 (0 no effect, 100 complete control).

In the case of `O=C1NCC(c2ccc(F)c(C(F)(F)F)c2)C1C(=O)Nc1ccccc1C(F)(F)F` (racemic) [Compound 78], the “Plant response rating, Morningglory” value with morningglory (setting [3]), with morningglory (setting [4]) and with morningglory (setting [6]) was 0 each time. The “Morningglory plant response rating” value with morningglory (setting [5]) is on record as 0. The “Plant response rating, Wheat” value with wheat (setting [3]) was found to be 40; in the assay with wheat (setting [4]) it was 50; in the assay on wheat (setting [6]), 0. Moreover, the “Wheat plant response rating” value with wheat (setting [5]) is 0. The “Plant response rating, Crabgrass, Large” value stood at 70 in the assay with crabgrass, large [1] (setting [3]); 80 in the assay on crabgrass, large [1] (setting [4]); 90 in the assay with crabgrass, large [1] (setting [6]); 98 in the assay on crabgrass, large [2] (Preemergence, 62 g ai/ha, scale 0 to 100); 98 in the assay on crabgrass, large [2] (setting [8]). Also, the “Crabgrass, Large plant response rating” value in the assay on crabgrass, large [1] (setting [5]) is 90; in the assay with crabgrass, large [2] (setting [7]), 95. Also, the “Plant response rating (scale of 0 to 100), Crabgrass, Large” value in the assay on crabgrass, large [2] (Preemergence, 250 g ai/ha) is 98.

Regarding `O=C1NCC(c2ccc(C(F)(F)F)c(F)c2)C1C(=O)Nc1ccccc1F` (racemic) [Compound 246], the “Plant response rating, Morningglory” value with morningglory (setting [9]), with morningglory (setting [4]), in the assay with morningglory (setting [10]) and with morningglory (setting [11]) was 0 throughout. Besides, the “Plant response rating, Wheat” value with wheat (setting [9]) came out at 0; with wheat (setting [4]), 30; in the assay on wheat (setting [10]), 0. Moreover, the “Plant response rating, Crabgrass, Large” value is reported as 50 with crabgrass, large [1] (setting [9]); 60 in the assay with crabgrass, large [1] (setting [4]); 90 in the assay on crabgrass, large [1] (setting [10]); 90 in the assay with crabgrass, large [1] (setting [11]); 95 in the assay with crabgrass, large [2] (setting [8]). Further, the “Crabgrass, Large plant response rating” value in the assay with crabgrass, large [2] (setting [7]) is on record as 95; with crabgrass, large [2] (setting [12]) it was 95. Further, in the assay on crabgrass, large [2] (Preemergence, 250 g ai/ha), the “Plant response rating (scale of 0 to 100), Crabgrass, Large” value was 98.

In the case of `O=C1NCC(c2ccc(C(F)(F)F)nc2)C1C(=O)Nc1ccccc1F` (racemic) [Compound 262], the “Plant response rating, Morningglory” value with morningglory (setting [9]), in the assay on morningglory (setting [4]), in the assay with morningglory (setting [10]) and with morningglory (setting [11]) was 0 each time. For the same compound, the “Plant response rating, Wheat” value in the assay on wheat (setting [9]), in the assay with wheat (setting [4]), in the assay on wheat (setting [10]) and in the assay with wheat (setting [11]) was 0 in each case. Further, the “Plant response rating, Crabgrass, Large” value in the assay on crabgrass, large [1] (setting [9]) was determined as 70; with crabgrass, large [1] (setting [4]), 80; in the assay on crabgrass, large [1] (setting [10]), 90; in the assay with crabgrass, large [1] (setting [11]) it was 90; in the assay on crabgrass, large [2] (setting [8]) it was 100. The “Crabgrass, Large plant response rating” value amounted to 95 in the assay on crabgrass, large [2] (setting [7]) and 98 in the assay with crabgrass, large [2] (setting [12]). Moreover, the “Plant response rating (scale of 0 to 100), Crabgrass, Large” value in the assay on crabgrass, large [2] (Preemergence, 250 g ai/ha) was found to be 100.

Regarding `O=C1NCC(c2ccc(C(F)(F)F)cc2)C1C(=O)Nc1ccccc1Cl` (stereo not drawn) [Compound 233], the “Plant response rating, Wheat” value in the assay on wheat (setting [9]) came to 0. The “Wheat plant response rating (0 to 100 scale, 0 is no effect, 100 is complete control)” value in the assay on wheat (Postemergence, 500 g ai/ha) amounted to 20. In addition, the “Crabgrass, Large plant response rating” value with crabgrass, large [2] (setting [7]) is 90; in the assay with crabgrass, large [2] (setting [12]) it was 90. In addition, the “Plant response rating, Crabgrass, Large” value with crabgrass, large [2] (setting [8]) amounted to 90. In addition, in the assay with crabgrass, large [2] (Preemergence, 250 g ai/ha), the “Plant response rating (scale of 0 to 100), Crabgrass, Large” value is listed as 90.

With `O=C(Nc1ccccc1F)C1C(=S)NCC1c1cccc(C(F)(F)F)c1` (stereo not drawn) [Compound 274], the “Plant response rating, Wheat” value in the assay with wheat (setting [13]) stood at 0; with wheat (Postemergence, 1000 g ai/ha, 0 to 100 scale (0 no effect, 100 complete control)), 40. Further, the “Crabgrass, Large plant response rating” value was 85 in the assay on crabgrass, large [2] (setting [7]) and 90 with crabgrass, large [2] (setting [12]). Besides, the “Plant response rating, Crabgrass, Large” value with crabgrass, large [2] (setting [8]) is 98. In addition, the “Plant response rating (scale of 0 to 100), Crabgrass, Large” value with crabgrass, large [2] (Preemergence, 250 g ai/ha) came out at 100.

For the compound `CN1CC(c2ccc(C(F)(F)F)cc2)C(C(=O)Nc2ccccc2F)C1=O` (stereo not drawn) [Compound 304], the entries for the “Plant response rating, Wheat” value with wheat (setting [13]) and with wheat (setting [4]) were 40 and 60, respectively. In addition, the “Plant response rating, Crabgrass, Large” value in the assay on crabgrass, large [2] (Postemergence, 16 g ai/ha, scale 0 to 100 (0 no effect, 100 complete control)) is 10; in the assay with crabgrass, large [2] (setting [14]), 10; with crabgrass, large [2] (setting [15]), 60; in the assay with crabgrass, large [2] (setting [16]), 80; in the assay on crabgrass, large [2] (setting [8]), 98; with crabgrass, large [2] (Preemergence, 16 g ai/ha, scale 0 to 100) it was 90. In addition, the “Crabgrass, Large plant response rating” value in the assay with crabgrass, large [2] (setting [7]) came out at 95; in the assay on crabgrass, large [2] (setting [12]), 95.

With `O=C1NCC(c2cccc(Br)c2)C1C(=O)Nc1ccccc1F` (stereo not drawn) [Compound 307], the “Plant response rating, Wheat” value in the assay on wheat (setting [13]) was 0; with wheat (setting [4]), 30. Besides, the “Crabgrass, Large plant response rating” value is 90 with crabgrass, large [2] (setting [7]) and 95 with crabgrass, large [2] (setting [12]). Besides, the “Plant response rating, Crabgrass, Large” value in the assay on crabgrass, large [2] (setting [17]) amounted to 95. Also, the “Plant response rating (scale of 0 to 100), Crabgrass, Large” value in the assay on crabgrass, large [2] (Preemergence, 250 g ai/ha) was 100.

With `O=C1NCC(c2cccc(C(F)(F)F)c2)C1C(=O)Nc1ccc(F)c(F)c1F` (stereo not drawn) [Compound 315], the results for the “Plant response rating, Wheat” value in the assay with wheat (setting [13]) and with wheat (setting [4]) were 60 and 70, respectively. Besides, the “Plant response rating, Crabgrass, Large” value in the assay on crabgrass, large [2] (setting [14]) was determined as 55; in the assay on crabgrass, large [2] (setting [15]), 65; with crabgrass, large [2] (setting [16]) it was 70; in the assay on crabgrass, large [2] (setting [18]), 75; with crabgrass, large [2] (setting [17]) it was 95. The “Crabgrass, Large plant response rating” value was 90 in the assay on crabgrass, large [2] (setting [7]) and 95 in the assay on crabgrass, large [2] (setting [12]). The “Plant response rating (scale of 0 to 100), Crabgrass, Large” value in the assay with crabgrass, large [2] (Preemergence, 250 g ai/ha) is listed as 98.

For the compound `O=C1NCC(c2cccc(C(F)(F)F)c2)C1C(=O)Nc1cccc(Cl)c1F` (stereo not drawn) [Compound 316], the “Plant response rating, Wheat” value with wheat (setting [13]) came out at 20; in the assay with wheat (setting [4]) it was 40. The “Plant response rating, Crabgrass, Large” value is 0 in the assay on crabgrass, large [2] (setting [14]); 50 in the assay on crabgrass, large [2] (setting [15]); 60 in the assay with crabgrass, large [2] (setting [16]); 70 with crabgrass, large [2] (setting [18]); 95 in the assay with crabgrass, large [2] (setting [17]). The “Crabgrass, Large plant response rating” value is 90 in the assay with crabgrass, large [2] (setting [7]) and 95 in the assay on crabgrass, large [2] (setting [12]). The “Plant response rating (scale of 0 to 100), Crabgrass, Large” value in the assay with crabgrass, large [2] (Preemergence, 250 g ai/ha) was found to be 98.

Consider `O=C1NCC(c2cccc(OC(F)F)c2)C1C(=O)Nc1ccc(F)c(F)c1F` (stereo not drawn) [Compound 325], for which the figures for the “Plant response rating, Wheat” value in the assay with wheat (setting [13]) and in the assay on wheat (setting [4]) were 60 and 80, respectively. Further, the “Plant response rating, Crabgrass, Large” value in the assay on crabgrass, large [2] (setting [14]) was 55; with crabgrass, large [2] (setting [15]) it was 65; in the assay with crabgrass, large [2] (setting [16]), 65; with crabgrass, large [2] (setting [18]), 85; in the assay with crabgrass, large [2] (setting [17]) it was 95. Also, the “Crabgrass, Large plant response rating” value in the assay with crabgrass, large [2] (setting [7]) is recorded as 95; in the assay with crabgrass, large [2] (setting [12]) it was 95. The “Plant response rating (scale of 0 to 100), Crabgrass, Large” value in the assay on crabgrass, large [2] (Preemergence, 250 g ai/ha) came out at 100.
